Measurements as given in US12390441B2, “Immunomodulating o-het/aryl azalides” (Zoetis Services LLC, priority 2020, dated 2025).

Key:
TNF-α = experiment: Whole blood assay, LPS stimulation, MSD cytokine detection; type: cell-based; details: fresh whole bovine blood
Procedure: (§1) Compounds of the invention were evaluated against a positive control for their ability to inhibit LPS-induced IL-1p and TNF-α as an overall evaluation of relative potency and modulation of target pathways.
(§2) In the bovine whole blood in vitro screening assay the inhibition of TNFα as induced by stimulation by lipopolysaccharide (LPS) and as measured by half the maximal inhibitory concentration (IC50) is recognized as the primary biomarker of immunomodulation potency upon pretreatment with the compounds of the invention. IL-1β is a mediator of the inflammation response and is involved in a number of cellular activities including proliferation, differentiation and apoptosis. IL-1β is also released upon cellular stress or cytotoxicity or upon TLR stimulation. In the bovine whole blood assay the stimulation of IL-1β release upon increasing concentration of test compound is seen as a potential cellular toxicity signal as induced by the test compound. In order to estimate a therapeutic index from the in vitro assay a differential between the TNFα IC50 (immunomodulation potency) versus the perceived cellular toxicity concentration (IL-1β release or overstimulation) was utilized. […] As the in vitro assay index approaches 1 it is proposed that the balance between immunomodulation and cytotoxicity would be too narrow in order to achieve an efficacious dose in vivo.

IL-1β = experiment: as above; type: cell-based, bovine; details: fresh whole bovine blood, LPS stimulation; drug concentration giving overstimulation (OS) of IL-1β
Procedure: as §1, §2

Row | SMILES | IC50 (TNF-α) | IL-1ß OS of LPS (IL-1β)
1 | CCCNC[C@]1(O)[C@H](C)O[C@@H](O[C@H]2[C@H](C)[C@@H](O[C@@H]3O[C@H](C)C[C@H](NC)[C@H]3Oc3cc(OC)c(OC)c(OC)c3)[C@](C)(O)C[C@@H](C)CN[C@H](C)[C@@H](O)[C@](C)(O)[C@@H](CC)OC(=O)[C@@H]2C)C[C@@]1(C)OC [Example E-11] | 70 µM | 250 µM
2 | CCCNC[C@]1(O)[C@H](C)O[C@@H](O[C@H]2[C@H](C)[C@@H](O[C@@H]3O[C@H](C)C[C@H](N(C)C)[C@H]3Oc3cnc(OC)nc3)[C@](C)(O)C[C@@H](C)CN[C@H](C)[C@@H](O)[C@](C)(O)[C@@H](CC)OC(=O)[C@@H]2C)C[C@@]1(C)OC [Example E-27] | 65 µM | 100 µM
3 | CCCNC[C@]1(O)[C@H](C)O[C@@H](O[C@H]2[C@H](C)[C@@H](O[C@@H]3O[C@H](C)C[C@H](NC)[C@H]3Oc3ccc(OC)c(F)c3)[C@](C)(O)C[C@@H](C)CN[C@H](C)[C@@H](O)[C@](C)(O)[C@@H](CC)OC(=O)[C@@H]2C)C[C@@]1(C)OC [Example E-10] | 30 µM | 40 µM
4 | CCCNC[C@]1(O)[C@H](C)O[C@@H](O[C@H]2[C@H](C)[C@@H](O[C@@H]3O[C@H](C)C[C@H](NC)[C@H]3Oc3ccc(OCC)cc3)[C@](C)(O)C[C@@H](C)CN[C@H](C)[C@@H](O)[C@](C)(O)[C@@H](CC)OC(=O)[C@@H]2C)C[C@@]1(C)OC [Example E-12] | 40 µM | 40 µM
5 | CC[C@H]1OC(=O)[C@H](C)[C@@H](O[C@H]2C[C@@](C)(OC)[C@](O)(CNCCN(C)C)[C@H](C)O2)[C@H](C)[C@@H](O[C@@H]2O[C@H](C)C[C@H](NC)[C@H]2Oc2ccccc2)[C@](C)(O)C[C@@H](C)CN[C@H](C)[C@@H](O)[C@]1(C)O [Example E-129] | 75 µM | 250 µM

Further lines, with some results ahead:

Row | IC50 (TNF-α) | SMILES | IL-1ß OS of LPS (IL-1β)
6 | 30 µM | CCCNC[C@]1(O)[C@H](C)O[C@@H](O[C@H]2[C@H](C)[C@@H](O[C@@H]3O[C@H](C)C[C@H](NC)[C@H]3Oc3cccc(OC)c3)[C@](C)(O)C[C@@H](C)CN[C@H](C)[C@@H](O)[C@](C)(O)[C@@H](CC)OC(=O)[C@@H]2C)C[C@@]1(C)OC [Example E-94] | 40 µM
7 | 5 µM | CC[C@H]1OC(=O)[C@H](C)[C@@H](O[C@H]2C[C@@](C)(OC)[C@](O)(CNn3cccn3)[C@H](C)O2)[C@H](C)[C@@H](O[C@@H]2O[C@H](C)C[C@H](NC)[C@H]2Oc2ccccc2)[C@](C)(O)C[C@@H](C)CN[C@H](C)[C@@H](O)[C@]1(C)O [Example E-139] | 6 µM
8 | 14 µM | CC[C@H]1OC(=O)[C@H](C)[C@@H](O[C@H]2C[C@@](C)(OC)[C@](O)(CNC3CCC3)[C@H](C)O2)[C@H](C)[C@@H](O[C@@H]2O[C@H](C)C[C@H](NC)[C@H]2Oc2ccccc2)[C@](C)(O)C[C@@H](C)CN[C@H](C)[C@@H](O)[C@]1(C)O [Example E-126] | 40 µM
9 | 13 µM | CCCNC[C@]1(O)[C@H](C)O[C@@H](O[C@H]2[C@H](C)[C@@H](O[C@@H]3O[C@H](C)C[C@H](N(C)C)[C@H]3Oc3ccc(F)cc3)[C@](C)(O)C[C@@H](C)CN[C@H](C)[C@@H](O)[C@](C)(O)[C@@H](CC)OC(=O)[C@@H]2C)C[C@@]1(C)OC [Example E-48] | 40 µM
10 | 16 µM | CCCNC[C@]1(O)[C@H](C)O[C@@H](O[C@H]2[C@H](C)[C@@H](O[C@@H]3O[C@H](C)C[C@H](N(C)C)[C@H]3Oc3ccc(OC)cc3)[C@](C)(O)C[C@@H](C)CN[C@H](C)[C@@H](O)[C@](C)(O)[C@@H](CC)OC(=O)[C@@H]2C)C[C@@]1(C)OC [Example E-43] | 40 µM
11 | 22 µM | CC[C@H]1OC(=O)[C@H](C)[C@@H](O)[C@H](C)[C@@H](O[C@@H]2O[C@H](C)C[C@H](N(C)C(=O)N(C)c3ccccc3)[C@H]2Oc2ccc(F)c(C(F)(F)F)c2)[C@](C)(O)C[C@@H](C)CN(C)[C@H](C)[C@@H](O)[C@]1(C)O [Example C-10] | 40 µM
